Test results from patent US5486511A, “4-amino-17β-(cyclopropyloxy)androst-4-en-3-one, 4-amino-17β-(cyclopropylamino)androst-4-en-3-one and related compounds as C17-20 lyase and 5α-reductase” (Merrell Dow Pharmaceuticals Inc., priority 1994, dated 1996).
Blank lines part the entries; values can stand above or below the molecule they belong to.

What was measured:
[1] = tested on: canine lyase; test: Inhibition of canine steroid C17,20 lyase (testicular microsomes); type: biochemical, dog; conditions: substrate, dog lyase
Method: (§1) The activity of the present compounds as inhibitors of steroid C17,20 lyase was established using microsomal preparations of the steroid C17,20 lyase enzyme from human or laboratory animal testes. Human testes used for this purpose were obtained from therapeutic orchiectomies. Specifically, microsomes were isolated from human, cynomolgus monkey, dog, rat or athymic nude mouse testicular tissue. The compound to be tested was dissolved in dimethyl sulfoxide and diluted in 0.05M potassium phosphate buffer to give the desired concentrations of the test compound. The potassium phosphate buffer was at pH 7.4 for the human, monkey and dog lyase assays and at pH 7.2 for the rat and athymic nude mouse lyase assays. Assays also contained 1 mM NADPH, 5 mM glucose-6-phosphate, 1 IU/ml glucose-6-phosphate dehydrogenase (an NADPH regenerating system) and microsomal protein in a total volume of 0.2 mL. Control assays contained all components including dimethyl sulfoxide, but with no test compound. All assays were performed in duplicate. […] Radioactivity in the steroid peaks was measured by a Radiomatic Model HS Flo-One detector.
(§2) The enzyme activity for each incubate was calculated from the percent conversion of substrate to products, and the results were expressed as percent inhibition of control. […] The Ki and kinact for time dependent inhibitors were determined by graphical analysis of Kitz-Wilson plots. […]

[2] = tested on: nude mouse lyase; test: Inhibition of athymic nude mouse steroid C17,20 lyase (testicular microsomes); type: biochemical; conditions: substrate, athymic nude mouse enzyme
Method: as §1, §2

[3] = tested on: rat lyase; test: Inhibition of rat steroid C17,20 lyase (testicular microsomes); type: biochemical; conditions: substrate, rat enzyme
Method: as §1, §2

[4] = substrate: CC(=O)[C@@]1(O)CC[C@H]2[C@@H]3CC=C4C[C@@H](O)CC[C@]4(C)[C@H]3CC[C@@]21C; test: Inhibition of cynomolgus monkey steroid C17,20 lyase (testicular microsomes), time dependent, Kitz-Wilson; type: biochemical; conditions: other: substrate, 34.0 °C
Method: as §1, §2

[5] = substrate: CC(=O)[C@@]1(O)CC[C@H]2[C@@H]3CC=C4C[C@@H](O)CC[C@]4(C)[C@H]3CC[C@@]21C; test: Inhibition of human steroid C17,20 lyase (testicular microsomes); type: biochemical; conditions: other: substrate, 34.0 °C
Method: as §1, §2

Molecule: CC(=O)[C@@]1(O)CC[C@H]2[C@@H]3CC=C4C[C@@H](O)CC[C@]4(C)[C@H]3CC[C@@]21C [17α-hydroxypregnenolone, reference compound]
Km [1]: 0.06 µM

Km [2]: 0.03 µM | Km [3]: 0.1 µM
Molecule: CC(=O)[C@@]1(O)CC[C@H]2[C@@H]3CCC4=CC(=O)CC[C@]4(C)[C@H]3CC[C@@]21C [17α-hydroxyprogesterone, reference compound]

B1: cynomolgus monkey C17,20 lyase (Macaca fascicularis) (protein)
chain: MWELVALLLLTLAYLFWPKRRCPGAKYPKSLLSLPLVGSLPFLPRHGHMHNNFFKLQKKYGPIYSVRMGTKTTVIVGHHQLAKEVLIKKGKDFSGRPQVTTLDILSNNRKGIAFADYGAHWQLHRRLAMATFALFKDGDQKLEKIICQEISTLCDMLATHNGQTIDISFPVFVAITNVISLICFNISYKNGDPELKIVHNYNEGIIDSLGKESLVDLFPWLKVFPNKTLEKLKRHVKTRNDLLTKIFENYKEKFHSDSITNMLDVLMQAKMNSDNGNAGPDQDSELLSDNHILTTIGDIFGAGVETTTSVVKWIVAFLLHNPQVKKKLYEEIDQNVGFSRTPTISDRNRLLLLEATIREVLRIRPVAPMLIPHKANVDSSIGEFAVDKGTHVIINLWALHHNEKEWHQPDQFMPERFLNPAGTQLISPSLSYLPFGAGPRSCIGEILARQELFLIMAWLLQRFDLEVPDDGQLPSLEGNPKVVFLIDSFKVKIKVRQAWREAQAEGST
notes: microsomes were isolated from human, cynomolgus monkey, dog, rat or athymic nude mouse testicular tissue; from tissue; host or cells: cynomolgus monkey testis microsomes
Km [4]: 0.11 µM

B2: human lyase (Homo sapiens) (protein)
chain: MWELVALLLLTLAYLFWPKRRCPGAKYPKSLLSLPLVGSLPFLPRHGHMHNNFFKLQKKYGPIYSVRMGTKTTVIVGHHQLAKEVLIKKGKDFSGRPQMATLDIASNNRKGIAFADSGAHWQLHRRLAMATFALFKDGDQKLEKIICQEISTLCDMLATHNGQSIDISFPVFVAVTNVISLICFNTSYKNGDPELNVIQNYNEGIIDNLSKDSLVDLVPWLKIFPNKTLEKLKSHVKIRNDLLNKILENYKEKFRSDSITNMLDTLMQAKMNSDNGNAGPDQDSELLSDNHILTTIGDIFGAGVETTTSVVKWTLAFLLHNPQVKKKLYEEIDQNVGFSRTPTISDRNRLLLLEATIREVLRLRPVAPMLIPHKANVDSSIGEFAVDKGTEVIINLWALHHNEKEWHQPDQFMPERFLNPAGTQLISPSVSYLPFGAGPRSCIGEILARQELFLIMAWLLQRFDLEVPDDGQLPSLEGIPKVVFLIDSFKVKIKVRQAWREAQAEGST
notes: microsomes were isolated from human, cynomolgus monkey, dog, rat or athymic nude mouse testicular tissue; from tissue; host or cells: human testis microsomes (therapeutic orchiectomies)
Km [5]: 0.30 µM
